Test results reported in PMC10115881, “Disrupting the α-synuclein-ESCRT interaction with a peptide inhibitor mitigates neurodegeneration in preclinical models of Parkinson’s disease” (Nature Communications, 2023).

Legend:
pS129 a-syn puncta = assay: PFF-induced a-syn seeding, pS129 a-syn puncta in cortical neurons; assay type: cell-based, rat
Procedure: PFFs synthesized from recombinant human a-syn were added to primary neuronal cultures to seed recruitment of endogenous a-syn into pS129 a-syn^+ aggregates. Recombinant human a-syn PFFs were purchased from StressMarq Biosciences (SPR-322B). Cells were plated on poly-D-lysine coated glass coverslips in 24-well cell culture plates at a density of 5 × 10^5 cells/well, and incubated at 37 °C in 5% CO2 with half media changes every 3 days. […] On day 8 post-isolation, cells were treated with 1.5 µg of recombinant a-syn PFFs. […]
Confocal images of primary cortical neurons, iPSC-derived dopaminergic neurons, and LAMP1 staining within the SN were processed using Imaris software (Oxford instruments). […] Mean pixel intensity per GFP^+ cell (for experiments using GFP-tagged peptides) or RFP^+ cell (for experiments using RFP-tagged peptides) was calculated for a-syn or LAMP1 signal using the software’s surfaces module. The software’s surfaces module was used to identify GFP^+/NeuN^+ cells, and number of pS129 a-syn^+ puncta per GFP^+/NeuN^+ cortical neuron was counted using the software’s spots module. Mean pixel intensity per RFP^+/NeuN^+ cortical neuron was calculated for Rab7, cathepsin B, or cathepsin D signals using the software’s surfaces module. […]

[1] = tested on: A53T a-syn expressing HEK293 cells; assay: Cell viability with CHMP2B or VPS4 shRNA knockdown, A53T a-syn cells; assay type: cell-based, human; parameters: Knockdown effect on cell viability: scale not given here
Source text: Fig. 1 Proteomic screens and in vitro validation of hits. A Schematic of the experimental design including proteomic screens, identification and validation of hits, target deconvolution, and evaluation in cell and animal models (created using Servier Medical Art at https://smart.servier.com/). For the cytotoxicity screen, we employed our peptide library to identify peptides that rescue cytotoxicity induced by a-syn overexpression and proteostatic stress (due to MG132 administration). To screen our library for peptides that inhibit a-syn oligomers, we used FACS with a split YFP-a-syn system (cells co-expressing V1S and SV2). B Validation of cell viability effect of peptides in A53T and WT a-syn expressing cells under proteostatic stress as well as controls. MG132 was used at a concentration of 10 μM. Experiments were done in triplicate. Data represent means ± s.d. (unpaired two-tailed t-tests; A53T PDpep1, P = 0.0051; A53T PDpep1.1, P = 0.0002; A53T PDpep1.2, P = 0.0035; A53T PDpep1.3, P < 0.0001; WT a-syn PDpep1.3, P = 0.0008; n = 3). C WT a-syn oligomers as measured by luciferase activity. […] Experiments were done in triplicate. Data represent means ± s.d. (unpaired two-tailed t-tests; PDpep1, P = 0.0008; PDpep1.1, PDpep1.2, PDpep1.3, P < 0.0001; n = 3). D Co-immunoprecipitation experiment with Flag-CHMP2B and GFP-peptides (n = 3). […] E Fluorescence polarization (FP) binding assay of a FITC-labeled PDpep1.3 peptide against CHMP2B. Error bars represent ± s.d. of the fit (n = 5). F Knockdown of CHMP2B or VPS4 in A53T a-syn expressing cells under proteostatic stress. Cell viabilities were measured with cells stably expressing different shRNAs and transfected with Scramble or PDpep1.3 peptide. Experiments were done in triplicate. Data represent means ± s.d. (unpaired two-tailed t-tests; PDpep1.3, P = 0.0005; n = 3). **P < 0.01; ***P < 0.001; ****P < 0.0001. Source data are provided as a Source Data file.
Cells were trypsinized from subconfluent cultures as described earlier, suspended in culture media, and then seeded into triplicate wells of a 96-well plate (100 µl/well) at a density of 1.5 × 10^4 cells per well with standard culture conditions of 5% CO2 at 37 °C. Cells were infected with lentivirus expressing peptide at a MOI of 5 for 72 h or transfected with plasmid for 72 h. Cell Titer-Glo reagent was added to each well (30 µL), according to the manufacturer’s protocol and […].

## DEEIERQLKALG [PDpep1.3]
pS129 a-syn puncta
  Effect on endogenous a-syn aggregates: reduced the number of endogenous a-syn aggregates
[1]; CHMP2B shRNA, replicate 1
  Knockdown effect on cell viability: 1.187
[1]; CHMP2B shRNA, replicate 2
  Knockdown effect on cell viability: 1.181
[1]; CHMP2B shRNA, replicate 3
  Knockdown effect on cell viability: 1.121
[1]; No shRNA, replicate 1
  Knockdown effect on cell viability: 1.473
[1]; No shRNA, replicate 2
  Knockdown effect on cell viability: 1.4504
[1]; No shRNA, replicate 3
  Knockdown effect on cell viability: 1.525
[1]; VPS4A shRNA, replicate 1
  Knockdown effect on cell viability: 1.3172
[1]; VPS4A shRNA, replicate 2
  Knockdown effect on cell viability: 1.331
[1]; VPS4A shRNA, replicate 3
  Knockdown effect on cell viability: 1.421
[1]; VPS4A/B shRNA, replicate 1
  Knockdown effect on cell viability: 1.464
[1]; VPS4A/B shRNA, replicate 2
  Knockdown effect on cell viability: 1.542
[1]; VPS4A/B shRNA, replicate 3
  Knockdown effect on cell viability: 1.564
[1]; VPS4B shRNA, replicate 1
  Knockdown effect on cell viability: 1.302
[1]; VPS4B shRNA, replicate 2
  Knockdown effect on cell viability: 1.395
[1]; VPS4B shRNA, replicate 3
  Knockdown effect on cell viability: 1.343
[1]; shRNA CHMP2B or VPS4A and/or VPS4B
  Cytoprotective effect under knockdown: prevented by CHMP2B knockdown, but not by knockdown of VPS4A and/or VPS4B
